Where two headings read alike, the source gives them in different places.
What was measured:
Assay in all cases: TGFα-shedding assay-based GPCR screening with chimeric Gα subunit proteins
Assay type in all cases: cell-based
[1] = molecular target: 348 GPCRs (Homo sapiens, UniProt P41143); conditions: read-out: % GPCR activation compared to TPA, OPRD1 (opioid receptor, delta 1 (DOR)); 10µM, Favipiravir 100μM
[2] = molecular target: T1, 348 GPCRs (Homo sapiens, UniProt Q13639); conditions: 10µM, Favipiravir 100μM
T1 construct: expressed in transfected cells; host or cells: HEK293A
T1 sequence (Q13639 whole entry): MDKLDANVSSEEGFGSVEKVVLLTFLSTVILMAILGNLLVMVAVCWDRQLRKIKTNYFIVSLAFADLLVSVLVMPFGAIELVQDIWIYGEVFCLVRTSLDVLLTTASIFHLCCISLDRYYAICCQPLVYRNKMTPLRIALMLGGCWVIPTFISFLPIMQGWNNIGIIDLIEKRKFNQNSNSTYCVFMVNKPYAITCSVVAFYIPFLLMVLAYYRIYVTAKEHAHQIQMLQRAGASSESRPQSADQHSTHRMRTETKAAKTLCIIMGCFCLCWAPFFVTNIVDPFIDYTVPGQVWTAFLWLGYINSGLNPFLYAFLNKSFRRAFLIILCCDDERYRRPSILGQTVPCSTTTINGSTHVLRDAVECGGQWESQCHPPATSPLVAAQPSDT

[3] = molecular target: T2, 348 GPCRs (Homo sapiens, UniProt Q86SP6); conditions: 10µM, Favipiravir 100μM
T2 construct: expressed in transfected cells; host or cells: HEK293A
T2 sequence (Q86SP6 1-731): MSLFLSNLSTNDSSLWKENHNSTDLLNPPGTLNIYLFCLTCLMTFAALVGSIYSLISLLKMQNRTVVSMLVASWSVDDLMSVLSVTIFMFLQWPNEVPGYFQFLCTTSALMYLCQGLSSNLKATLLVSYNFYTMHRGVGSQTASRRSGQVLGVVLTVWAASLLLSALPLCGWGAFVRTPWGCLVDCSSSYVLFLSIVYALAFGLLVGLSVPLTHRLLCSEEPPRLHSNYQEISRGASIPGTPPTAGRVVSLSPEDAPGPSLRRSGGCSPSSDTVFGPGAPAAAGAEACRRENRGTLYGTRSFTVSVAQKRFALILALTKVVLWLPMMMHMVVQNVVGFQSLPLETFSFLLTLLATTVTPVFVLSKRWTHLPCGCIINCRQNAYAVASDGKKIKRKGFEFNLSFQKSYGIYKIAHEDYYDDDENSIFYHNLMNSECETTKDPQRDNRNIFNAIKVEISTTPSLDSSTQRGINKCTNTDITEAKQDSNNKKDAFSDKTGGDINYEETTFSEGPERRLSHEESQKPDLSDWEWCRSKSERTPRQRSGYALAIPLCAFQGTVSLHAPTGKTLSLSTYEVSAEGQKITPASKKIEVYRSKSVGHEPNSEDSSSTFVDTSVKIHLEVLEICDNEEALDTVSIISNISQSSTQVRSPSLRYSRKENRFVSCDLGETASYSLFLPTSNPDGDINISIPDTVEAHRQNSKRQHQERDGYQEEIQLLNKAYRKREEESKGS

[4] = molecular target: T3, 348 GPCRs (Homo sapiens, UniProt Q86SQ6)
T3 construct: expressed in transfected cells; host or cells: HEK293A
T3 sequence (Q86SQ6 1-560): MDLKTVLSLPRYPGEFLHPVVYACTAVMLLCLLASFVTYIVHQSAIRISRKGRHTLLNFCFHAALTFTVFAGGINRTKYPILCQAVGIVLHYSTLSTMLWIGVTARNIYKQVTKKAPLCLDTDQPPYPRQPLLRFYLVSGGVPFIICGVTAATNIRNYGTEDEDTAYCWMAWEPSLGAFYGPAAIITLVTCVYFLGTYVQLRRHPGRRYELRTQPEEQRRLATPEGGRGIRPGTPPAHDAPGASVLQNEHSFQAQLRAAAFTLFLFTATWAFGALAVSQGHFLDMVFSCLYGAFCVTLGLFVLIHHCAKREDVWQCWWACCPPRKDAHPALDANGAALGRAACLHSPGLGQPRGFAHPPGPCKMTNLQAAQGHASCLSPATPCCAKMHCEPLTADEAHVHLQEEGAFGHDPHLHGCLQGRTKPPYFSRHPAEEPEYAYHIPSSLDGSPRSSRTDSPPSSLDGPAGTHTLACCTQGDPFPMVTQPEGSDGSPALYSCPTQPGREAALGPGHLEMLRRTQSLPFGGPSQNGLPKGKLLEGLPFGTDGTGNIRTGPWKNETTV

[5] = molecular target: T4, 348 GPCRs (Homo sapiens, UniProt Q8IWK6); conditions: 10µM, Favipiravir 100μM
T4 construct: expressed in transfected cells; host or cells: HEK293A
T4 sequence (Q8IWK6 34-1321): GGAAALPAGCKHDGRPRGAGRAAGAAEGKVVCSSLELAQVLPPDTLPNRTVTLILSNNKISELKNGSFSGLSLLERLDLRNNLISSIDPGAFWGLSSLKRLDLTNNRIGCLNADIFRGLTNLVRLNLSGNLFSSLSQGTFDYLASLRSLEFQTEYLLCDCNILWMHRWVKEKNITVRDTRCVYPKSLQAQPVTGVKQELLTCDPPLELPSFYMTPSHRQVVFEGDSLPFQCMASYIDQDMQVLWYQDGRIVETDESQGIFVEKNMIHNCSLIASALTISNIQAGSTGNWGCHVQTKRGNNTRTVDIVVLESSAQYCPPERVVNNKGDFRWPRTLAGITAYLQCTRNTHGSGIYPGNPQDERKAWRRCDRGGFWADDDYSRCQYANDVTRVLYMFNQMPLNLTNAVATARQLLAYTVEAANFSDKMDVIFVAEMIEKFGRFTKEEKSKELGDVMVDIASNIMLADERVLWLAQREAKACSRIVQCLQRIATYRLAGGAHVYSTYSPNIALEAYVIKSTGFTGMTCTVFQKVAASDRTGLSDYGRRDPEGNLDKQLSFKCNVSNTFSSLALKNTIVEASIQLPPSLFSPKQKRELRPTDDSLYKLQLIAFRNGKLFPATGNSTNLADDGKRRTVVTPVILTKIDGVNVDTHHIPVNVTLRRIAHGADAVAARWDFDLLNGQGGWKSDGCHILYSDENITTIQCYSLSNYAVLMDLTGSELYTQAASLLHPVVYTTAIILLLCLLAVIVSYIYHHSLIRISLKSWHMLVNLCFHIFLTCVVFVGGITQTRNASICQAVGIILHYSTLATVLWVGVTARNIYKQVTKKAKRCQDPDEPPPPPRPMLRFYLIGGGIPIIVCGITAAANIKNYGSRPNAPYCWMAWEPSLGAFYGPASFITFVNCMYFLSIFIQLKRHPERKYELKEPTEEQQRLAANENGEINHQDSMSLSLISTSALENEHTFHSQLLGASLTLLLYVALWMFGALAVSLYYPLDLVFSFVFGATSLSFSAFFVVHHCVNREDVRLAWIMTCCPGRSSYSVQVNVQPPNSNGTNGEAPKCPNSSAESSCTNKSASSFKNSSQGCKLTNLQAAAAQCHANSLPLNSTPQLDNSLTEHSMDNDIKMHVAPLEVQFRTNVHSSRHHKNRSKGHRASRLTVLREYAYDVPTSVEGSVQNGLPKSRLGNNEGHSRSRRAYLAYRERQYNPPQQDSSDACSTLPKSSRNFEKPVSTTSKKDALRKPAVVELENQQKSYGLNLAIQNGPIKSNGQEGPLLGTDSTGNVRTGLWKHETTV

[6] = HTR4 (5-hydroxytryptamine (serotonin) receptor 4), read-out: % GPCR activation compared to TPA
[7] = GPR149 (G protein-coupled receptor 149), read-out: % GPCR activation compared to TPA
[8] = GPCR GPR123 (Adhesion G Protein-Coupled Receptor A1 (ADGRA1)), read-out: % GPCR activation compared to TPA
[9] = GPR125 (Adhesion G Protein-Coupled Receptor A2 (ADGRA3)), read-out: % GPCR activation compared to TPA
[10] = read-out: % GPCR activation compared to TPA, HTR4 (5-hydroxytryptamine (serotonin) receptor 4)
[11] = read-out: % GPCR activation compared to TPA, GPR149 (G protein-coupled receptor 149)
[12] = read-out: % GPCR activation compared to TPA, GPCR GPR123 (Adhesion G Protein-Coupled Receptor A1 (ADGRA1))
[13] = read-out: % GPCR activation compared to TPA, GPR125 (Adhesion G Protein-Coupled Receptor A2 (ADGRA3))

348 GPCRs (Homo sapiens, UniProt P41143), sequence (P41143 whole entry): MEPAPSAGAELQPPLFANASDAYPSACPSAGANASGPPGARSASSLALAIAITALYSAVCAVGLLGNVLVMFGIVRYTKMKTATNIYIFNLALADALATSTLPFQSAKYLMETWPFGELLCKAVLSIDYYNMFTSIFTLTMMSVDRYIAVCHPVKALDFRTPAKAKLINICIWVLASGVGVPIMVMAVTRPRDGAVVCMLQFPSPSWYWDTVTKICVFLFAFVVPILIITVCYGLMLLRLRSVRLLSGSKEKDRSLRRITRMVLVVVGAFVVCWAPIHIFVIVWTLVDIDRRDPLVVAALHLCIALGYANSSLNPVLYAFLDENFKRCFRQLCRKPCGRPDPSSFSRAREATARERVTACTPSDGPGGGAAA

activation at 100 µM [1]	activation at 100 µM [2, 6]	activation at 100 µM [3, 7]	activation at 10 µM [4, 8]	activation at 10 µM [5, 9]	activation at 100 µM ([4]; GPCR GPR123 (Adhesion G Protein-Coupled Receptor A1 (ADGRA1)), 100μM, read-out: % GPCR activation compared to TPA)	SMILES	activation at 100 µM [2, 10]	activation at 100 µM [3, 11]	activation at 10 µM [4, 12]	activation at 10 µM [5, 13]
-2.68%	-1.56%	-0.814%	0.375%	-0.689%	–	N#C[C@@]1(c2ccc3c(N)ncnn23)O[C@H](CO)[C@@H](O)[C@H]1O [GS441524]	–	–	–	–
-3.28%	-3.64%	0.0439%	–	-1.96%	-1.45%	NC(=O)c1nc(F)cnc1O [favipiravir, 6-fluoro-3-hydroxy-2-pyrazinecarboxamide]	–	–	–	–
-1.93%	-3.37%	-41.7%	-2.47%	-0.998%	–	CC(C)C(=O)OC[C@H]1O[C@@H](n2ccc(NO)nc2=O)[C@H](O)[C@@H]1O [molnupiravir]	–	–	–	–

SMILES	activation at 100 µM [1]	activation at 100 µM [2, 6]	activation at 100 µM [3, 7]	activation at 10 µM [4, 8]	activation at 10 µM [5, 9]	activation at 100 µM ([4]; GPCR GPR123 (Adhesion G Protein-Coupled Receptor A1 (ADGRA1)), 100μM, read-out: % GPCR activation compared to TPA)	activation at 100 µM [2, 10]	activation at 100 µM [3, 11]	activation at 10 µM [4, 12]	activation at 10 µM [5, 13]
CCC(CC)COC(=O)[C@H](C)N[P@](=O)(OC[C@H]1O[C@@](C#N)(c2ccc3c(N)ncnn23)[C@H](O)[C@@H]1O)Oc1ccccc1 [remdesivir]	-3.05%	–	–	–	–	–	-2.24%	-0.636%	-0.903%	-0.226%
CC(C)OC(=O)[C@H](C)N[P@](=O)(OC[C@H]1O[C@@H](n2ccc(=O)[nH]c2=O)[C@](C)(F)[C@@H]1O)Oc1ccccc1 [sofosbuvir]	-2.64%	–	–	–	–	–	-4.08%	-7.06%	0.445%	0.926%
